Assay results reported in patent US9695153B2, “Oligooxopiperazines for p53 reactivation” (New York University, priority 2013, dated 2017).

Assays:
[1] = test system: p53 transcriptional activity in UMSCC47 cells; assay: p53 transcriptional activity, Cignal p53 luciferase reporter; type: cell-based, human; details: 24 hours; for p53 activity, increase: vs vehicle
Procedure: Cells were transfected with 100 ng of Cignal p53 reporter (SABiosciences, Valencia, Calif.) using Lipofectamine 2000. Cignal p53 reporter contains tandem repeats of the p53 consensus transcriptional response element. After 48 hours, cells were washed with cold PBS, lysed in passive lysis buffer (Promega), and measured for Firefly/Renilla dual luciferase activities in a luminometer using the Dual-Light System (Applied Biosystems, Foster City, Calif.). […] to control for transfection efficiency. A modification to the protocol was used for compound treatment. UMSCC47 cells were transfected with 100 ng of Cignal p53 reporter. After 24 hours, cells were treated with vehicle, CH1iB (10 μM), cis-platinum (10 μM), or combination of CH1iB (10 μM) and cis-platinum (10 μM) and measured for Firefly/Renilla dual luciferase activities 24 hours post-treatment.

[2] = test system: UMSCC47 cells; assay: Cell proliferation (MTT); type: cell-based, human; details: for cell proliferation, single-agent: UMSCC47, 10 μM; for cell proliferation, in combination with cis-platinum: UMSCC47, 10 μM with cis-platinum 10 μM
Procedure: (§1) Cell proliferation was assessed using the MTT reagent (Roche Molecular Biochemicals, Nutley, N.J.) to detect metabolic active cells. Absorbance was measured at 570 nm in the Spectra Max 190 ELISA reader (Molecular Devices, Sunnyvale, Calif.) after overnight incubation. For clonogenic survival, 200 cells per well were plated in complete growth media and allowed to grow until visible colonies were formed (14 days). Cell colonies were fixed with cold methanol, stained with 0.25% crystal violet in 25% methanol, washed, and air dried. For apoptosis, cells were harvested, washed with cold PBS, and co-stained with Annexin V and propidium iodide according to the manufacturer's protocol (ApoAlert Annexin V-FITC Apoptosis Kit; Clontech). Apoptotic cells were analyzed using BD FACS Calibur (BD Biosciences Corporation, Franklin Lakes, N.J.) at The Ohio State University Comprehensive Cancer Center Analytical Cytometry Core.

[3] = test system: UMSCC47 cells; assay: Apoptosis, Annexin V FACS; type: cell-based, human; details: UMSCC47, 10 μM, 24 hours, vs vehicle
Procedure: as §1

[4] = test system: IMR90 (human normal fibroblasts); assay: Cell proliferation (MTT); type: cell-based; details: for efficacy of cis-platinum on proliferation, combination: IMR90 fibroblasts, 10 μM with cis-platinum 10 μM; for cell proliferation, single-agent: human normal IMR90 fibroblasts, 10 μM
Procedure: as §1

[5] = biological target: T1, HPV16 E6-p300 association in UMSCC47 cells (Homo sapiens, UniProt Q09472); assay: Immunoprecipitation, HPV16 E6-p300 association; type: cell-based; details: UMSCC47, 10 μM, 24 hours
T1 construct: endogenous in cells; host or cells: UMSCC47 (HPV16-positive HNSCC cells)
Procedure: Cells were lysed with NP buffer [50 mM Tris (pH 8.0), 150 mM NaCl, 0.5% deoxycholate, 0.1% SDS, and 1.0% NP-40] containing 1× Protease Inhibitor Cocktail (Roche, Switzerland) at 4° C. with gentle rocking for 15 min. The supernatant was pre-cleared to block nonspecific binding with 50 μL protein A/G Agarose beads (Pierce Biotechnology) that had been pre-washed with NP buffer before use. Equal amounts of anti-E6 antibody (Abcam), anti-p300 antibody (Millipore), or IgG antibody (Cell Signaling) were added to the respective samples. After 4 hours incubation at 4° C., 50 μL pre-washed protein A/G-agarose beads were added to each tube and immunoprecipitation was performed by rocking overnight at 4° C. The immunoprecipitated complexes were washed with NP buffer and then eluted using 2×SDS sample buffer. Eluted sample and 10% of input were resolved by SDS-PAGE for Western blot analysis with anti-E6, anti-p300, or anti-V5 antibodies.

[6] = test system: UMSCC47 cells; assay: Tumorsphere formation; type: cell-based, human; details: UMSCC47, 10 μM, 7 days, vs vehicle
Procedure: Cells were harvested and seeded in a serum-free defined medium consisting of KSF medium supplemented with epidermal growth factor, basic fibroblast growth factor, insulin, and hydrocortisone in low-attachment plates (Corning Incorporated, Corning, N.Y.) for tumorspheres. Tumorsphere formation efficiency was calculated as the number of tumorspheres (≧50 μm in diameter) formed in 7 days divided by the original number of cells seeded. Tumorsphere diameter was measured using NIS-Elements software.

[7] = test system: p53 transcriptional activity in UMSCC74A cells; assay: p53 transcriptional activity, Cignal p53 luciferase reporter; type: cell-based, human; details: HPV-negative UMSCC74A, 10 μM, 24 hours
[8] = test system: total and acetylated p53 in UMSCC47 cells; assay: Western blot of total and acetylated[K382] p53; type: cell-based, human; details: 24 hours; for p53 accumulation and acetylated p53 levels: UMSCC47, 10 μM
Procedure: (§2) Whole cell lysates were mixed with Laemmli loading buffer, boiled, separated by SDS-PAGE, and transferred to a nitrocellulose membrane. Subsequently, immunoblot analyses were performed using antibodies specific to V5 (Invitrogen), p53 (sc-126, Santa Cruz Biotechnology, Santa Cruz, Calif.), or acetylated[[…]]-p53 (2525, Cell Signaling Technology). The signal was developed using the SuperSignal Western Blotting Kit (Pierce, Rockford, Ill.).

[9] = test system: total and acetylated p53 in UMSCC74A cells; assay: Western blot of total and acetylated[K382] p53; type: cell-based, human; details: 10 μM, 24 hours
Procedure: as §2

[10] = test system: UMSCC47 cells; assay: Clonogenic survival; type: cell-based, human; details: UMSCC47, 10 μM, 14 days, vs vehicle
Procedure: as §1

[11] = test system: p300, p53, p21, miR-34a, miR-200c expression in UMSCC74A cells; assay: Quantitative real-time PCR (TaqMan); type: cell-based, human; details: 10 μM, 24 hours
Procedure: (§3) Cells were extracted for total RNA using the TRIzol® reagent (Invitrogen) or TaqMan PreAmp Cells-to-CT kit (Applied Biosystems). Expression of p300, p53, p21, miR-34a and miR-200c were determined using the Applied Biosystems 7900HT Fast Real-Time PCR System with validated TaqMan gene expression assays (Applied Biosystems). p53, p300, and p21 expression were normalized to GADPH and miR-34a and miR-200c expression were normalized to RNU44 using the ΔΔCt method.

[12] = test system: p300, p53, p21, miR-34a, miR-200c expression in UMSCC47 cells; assay: Quantitative real-time PCR (TaqMan); type: cell-based, human; details: UMSCC47, 10 μM, 24 hours
Procedure: as §3

[13] = test system: UMSCC74A cells; assay: Cell proliferation (MTT); type: cell-based, human; details: for cell proliferation, single-agent: HPV-negative UMSCC74A, 10 μM; for efficacy of cis-platinum on proliferation, combination: UMSCC74A, 10 μM with cis-platinum 10 μM
Procedure: as §1

[14] = HPV-positive UMSCC47 cells, 10 μM
[15] = UMSCC47, CH1iB 10 μM and cis-platinum 10 μM

T1 sequence (Q09472 whole entry): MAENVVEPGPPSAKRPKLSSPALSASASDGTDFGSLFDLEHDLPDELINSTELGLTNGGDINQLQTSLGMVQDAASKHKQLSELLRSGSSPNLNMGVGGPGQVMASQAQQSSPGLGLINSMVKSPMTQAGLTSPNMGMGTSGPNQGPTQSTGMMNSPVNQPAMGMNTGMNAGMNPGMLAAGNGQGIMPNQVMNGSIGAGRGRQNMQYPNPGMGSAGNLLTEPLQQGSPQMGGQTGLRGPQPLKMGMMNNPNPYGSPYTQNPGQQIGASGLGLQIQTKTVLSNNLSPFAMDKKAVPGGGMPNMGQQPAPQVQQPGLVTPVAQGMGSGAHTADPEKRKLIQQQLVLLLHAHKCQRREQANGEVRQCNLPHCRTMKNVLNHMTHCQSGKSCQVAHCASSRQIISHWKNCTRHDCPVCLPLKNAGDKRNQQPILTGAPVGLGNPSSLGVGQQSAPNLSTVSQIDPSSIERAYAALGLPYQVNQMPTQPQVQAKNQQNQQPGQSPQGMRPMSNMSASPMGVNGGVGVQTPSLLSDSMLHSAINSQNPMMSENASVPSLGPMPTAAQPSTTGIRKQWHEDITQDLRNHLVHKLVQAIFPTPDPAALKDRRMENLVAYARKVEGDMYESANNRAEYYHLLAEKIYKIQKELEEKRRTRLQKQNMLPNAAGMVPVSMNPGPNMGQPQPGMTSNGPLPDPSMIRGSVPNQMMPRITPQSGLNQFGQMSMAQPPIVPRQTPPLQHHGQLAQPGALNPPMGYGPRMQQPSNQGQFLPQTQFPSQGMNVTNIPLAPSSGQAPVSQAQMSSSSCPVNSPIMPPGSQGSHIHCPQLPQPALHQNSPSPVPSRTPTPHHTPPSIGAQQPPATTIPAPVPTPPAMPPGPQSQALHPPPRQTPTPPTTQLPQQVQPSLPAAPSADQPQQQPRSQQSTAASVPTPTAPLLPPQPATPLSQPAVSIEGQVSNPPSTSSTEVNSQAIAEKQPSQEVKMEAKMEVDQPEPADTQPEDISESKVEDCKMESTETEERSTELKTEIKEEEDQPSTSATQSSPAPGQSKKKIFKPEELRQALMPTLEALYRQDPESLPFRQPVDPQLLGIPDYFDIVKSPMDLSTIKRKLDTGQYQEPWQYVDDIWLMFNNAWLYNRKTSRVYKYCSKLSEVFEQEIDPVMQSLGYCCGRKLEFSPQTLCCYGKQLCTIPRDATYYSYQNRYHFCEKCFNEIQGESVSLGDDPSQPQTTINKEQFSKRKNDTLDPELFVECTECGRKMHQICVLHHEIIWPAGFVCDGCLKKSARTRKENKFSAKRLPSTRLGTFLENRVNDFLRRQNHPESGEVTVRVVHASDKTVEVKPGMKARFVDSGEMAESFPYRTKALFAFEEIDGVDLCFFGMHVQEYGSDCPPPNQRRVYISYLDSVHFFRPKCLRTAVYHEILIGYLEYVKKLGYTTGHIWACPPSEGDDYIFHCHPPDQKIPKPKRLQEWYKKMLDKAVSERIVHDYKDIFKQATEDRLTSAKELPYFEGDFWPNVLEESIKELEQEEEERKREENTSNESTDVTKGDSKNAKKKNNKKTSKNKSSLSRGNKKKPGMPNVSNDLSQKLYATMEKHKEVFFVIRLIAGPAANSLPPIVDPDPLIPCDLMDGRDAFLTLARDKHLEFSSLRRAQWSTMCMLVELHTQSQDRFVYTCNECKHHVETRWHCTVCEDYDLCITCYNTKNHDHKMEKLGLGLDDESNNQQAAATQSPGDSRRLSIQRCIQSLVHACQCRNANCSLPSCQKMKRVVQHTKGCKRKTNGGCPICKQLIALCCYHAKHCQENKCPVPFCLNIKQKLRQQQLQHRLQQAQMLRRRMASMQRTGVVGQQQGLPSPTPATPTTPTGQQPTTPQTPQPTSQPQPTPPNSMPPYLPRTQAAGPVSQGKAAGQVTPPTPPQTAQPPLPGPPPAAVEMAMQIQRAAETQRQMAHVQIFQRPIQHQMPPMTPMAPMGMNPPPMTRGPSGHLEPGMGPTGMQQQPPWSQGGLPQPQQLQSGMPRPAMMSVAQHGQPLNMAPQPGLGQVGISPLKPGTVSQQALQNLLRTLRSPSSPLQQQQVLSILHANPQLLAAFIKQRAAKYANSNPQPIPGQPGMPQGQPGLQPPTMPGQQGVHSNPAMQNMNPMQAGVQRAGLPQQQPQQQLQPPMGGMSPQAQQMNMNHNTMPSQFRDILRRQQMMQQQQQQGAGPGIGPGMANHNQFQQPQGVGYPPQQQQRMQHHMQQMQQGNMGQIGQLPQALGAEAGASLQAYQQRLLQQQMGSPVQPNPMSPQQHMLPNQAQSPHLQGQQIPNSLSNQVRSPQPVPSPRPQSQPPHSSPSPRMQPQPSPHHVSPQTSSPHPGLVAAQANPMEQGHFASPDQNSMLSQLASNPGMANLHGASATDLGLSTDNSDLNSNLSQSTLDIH

Substance | p53 activity, increase [1, 14] [%] | cell proliferation, single-agent [2] | cell proliferation, in combination with cis-platinum [2] | apoptosis, enhancement [3] [%] | efficacy of cis-platinum on proliferation, combination [4] | cell proliferation, single-agent [4] | association between E6 and p300 [5] | tumorsphere formation, reduction [6] [%] | effect of cis-platinum on p53 activity, combination [1, 15] | p53 activity [7] | p53 accumulation and acetylated p53 levels [8] | effect of cis-platinum on p53 accumulation and acetylation, combination [8, 15] | p53 levels [9] | clonogenic survival, reduction (inhibition) [10] [%] | expression of p300, p53, and p53-regulated genes [11] | p21, miR-34a, and miR-200c expression [12] | cell proliferation, single-agent [13] | efficacy of cis-platinum on proliferation, combination [13] | p53 activity [1, 14]
XELA*RAADQ-NH2 (ELXRAADQ; not fully specified; hydrogen bond surrogate crosslink; C-terminal amide; CH1iB-MUT) [specificity control for CH1iB in which one leucine residue is mutated to alanine] | 14 | no effect | no effect | – | – | – | – | – | – | – | – | – | – | – | – | – | – | – | –
XELA*RALDQ-NH2 (ELXRALDQ; not fully specified; hydrogen bond surrogate crosslink; C-terminal amide; CH1iB) [hydrogen bond surrogate helix mimic of HIF-1α targeting site B of p300 CH1] | 71 | inhibited | potentiated the anti-proliferative efficacy of cis-platinum | 353 | did not augment | had no effect | reduced | 20 | potentiated the effect of cis-platinum | did not modulate | enhanced | potentiated the effect of cis-platinum | did not modulate | 35 | unchanged | modest but significant increase | had no effect | did not augment | –
XTAA*DCEYNAR (TAXDCEYNAR; not fully specified; hydrogen bond surrogate crosslink; CH1iA) [hydrogen bond surrogate stabilized α-helical mimic of HIF-1α targeting site A of p300 CH1, reference compound] | – | inactive | – | – | did not augment | had no effect | not | – | – | did not modulate | had no effect | – | did not modulate | – | unchanged | – | had no effect | did not augment | had no effect
